Measurements from PMC6759494 (Tetrahedron, 2019).

Target: peptide deformylase (EcPDF) (Escherichia coli, UniProt P0A6K3)
Experiment: coupled colorimetric assay
Assay type: biochemical

peptide deformylase (EcPDF), sequence (P0A6K3 2-169): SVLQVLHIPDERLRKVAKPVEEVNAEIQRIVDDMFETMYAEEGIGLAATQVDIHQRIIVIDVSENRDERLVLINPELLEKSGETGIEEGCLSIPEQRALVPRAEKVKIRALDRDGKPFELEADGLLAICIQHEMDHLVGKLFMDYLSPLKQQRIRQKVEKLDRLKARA

Compound | % inhibition at 4 μM | inhibition at 4 µM (read-out: % inhibition at 4 μM)
Dimethoxy-fumimycin methyl ester [17b] | ~ 20 | 
C/C=C/c1c(O)c(O)cc2c1[C@@](C)(NC(=O)/C=C/C(=O)O)C(=O)O2 (racemic) [compound 1, (±)-fumimycin] | ~ 20 | 
Fumimycin Weinreb amide [17h] | ~ 16 | 
CCCCC[C@H](CC(=O)NO)C(=O)N[C@H](C(=O)N1CCC[C@H]1CO)C(C)C [compound 2, actinonin] |  | ~95%
Dimethoxy-fumimycin hydroxamic acid [17f] | ~ 20 | 
